How the values were obtained:
[1] = biological target: Tyrosine-protein kinase JAK2 (Homo sapiens, UniProt O60674); test: Inhibition of JAK2 (unknown origin) incubated for 40 mins in presence of ATP by Kinase-glo luminescence assay
HCT-116 = test: Cell cycle arrest in human HCT116 cells assessed as accumulation at […] phase at 10 uM incubated for 48 hrs by propidium iodide staining based flow cytometric analysis (reference value: 2.01 %); format: functional

Sequence of Tyrosine-protein kinase JAK2 (O60674 whole entry): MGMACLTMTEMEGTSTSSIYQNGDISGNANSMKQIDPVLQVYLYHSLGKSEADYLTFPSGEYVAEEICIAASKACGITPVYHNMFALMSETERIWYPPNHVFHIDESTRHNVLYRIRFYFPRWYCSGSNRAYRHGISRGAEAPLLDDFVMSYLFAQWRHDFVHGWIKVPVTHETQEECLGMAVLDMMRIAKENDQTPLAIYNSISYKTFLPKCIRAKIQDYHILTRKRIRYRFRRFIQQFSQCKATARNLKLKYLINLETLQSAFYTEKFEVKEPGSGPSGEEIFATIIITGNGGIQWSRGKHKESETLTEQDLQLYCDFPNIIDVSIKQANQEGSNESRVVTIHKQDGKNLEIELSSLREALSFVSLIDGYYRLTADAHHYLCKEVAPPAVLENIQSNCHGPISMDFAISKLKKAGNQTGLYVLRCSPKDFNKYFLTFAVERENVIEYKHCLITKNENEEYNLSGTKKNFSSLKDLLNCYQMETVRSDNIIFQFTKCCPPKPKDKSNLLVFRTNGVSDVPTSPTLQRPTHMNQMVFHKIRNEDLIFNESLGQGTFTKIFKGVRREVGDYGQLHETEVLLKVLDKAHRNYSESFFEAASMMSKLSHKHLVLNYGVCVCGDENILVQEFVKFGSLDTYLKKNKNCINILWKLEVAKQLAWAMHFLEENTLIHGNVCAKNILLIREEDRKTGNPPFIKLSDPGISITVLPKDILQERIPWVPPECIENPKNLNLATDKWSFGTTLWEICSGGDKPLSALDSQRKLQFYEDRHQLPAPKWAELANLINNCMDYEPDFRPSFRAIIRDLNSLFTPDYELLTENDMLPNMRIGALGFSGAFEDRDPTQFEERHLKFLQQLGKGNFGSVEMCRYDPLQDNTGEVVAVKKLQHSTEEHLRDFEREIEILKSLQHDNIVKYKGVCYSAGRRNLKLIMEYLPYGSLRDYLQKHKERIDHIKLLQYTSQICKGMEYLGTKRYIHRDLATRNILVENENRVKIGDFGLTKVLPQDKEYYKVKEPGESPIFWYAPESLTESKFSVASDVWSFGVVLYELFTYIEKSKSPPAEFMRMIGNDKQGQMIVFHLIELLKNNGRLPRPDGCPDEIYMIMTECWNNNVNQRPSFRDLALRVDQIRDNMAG

For O=C(Nc1c[nH]nc1-c1nc(-c2ccc(CN3CCOCC3)cc2)c[nH]1)c1cccc(Cl)c1, the IC50 [1] was 0.166 µM and the Activity (HCT-116) was 2.01%.
